Ends that are not written are not given here.
Tests used:
Assay type in all cases: cell-based
[1] = system: dermal fibroblasts; assay: Synthesis of intracellular ATP (ATP Bioluminescence Assay Kit HS II); conditions: 1% solution of a 50 ppm solution of peptide, compared to the untreated cells
Protocol: The goal of this study is to determine the influence of the peptide SEQ ID no 2 on the synthesis of ATP.
This study was conducted using an “ATP Bioluminescence Assay Kit HS II” Kit (Roche Applied Science):
The dermal fibroblasts are treated with a 1% solution, a solution a 50 ppm, containing the peptide SEQ ID no 2, representative of the family of peptides according to the invention, for a period lasting from 1 to 3 hours. At the end of the incubation period, the wells are emptied of their medium and rinsed with 2 ml of cold PBS before adding 250 μl of a lysis buffer supplied by the kit. The cells of each well are then scrapped, then collected in 14 ml tubes. Each well is rinsed with 2×500 μl of cold PBS and everything is against collected the respective tubes. Beginning with these samples, a 1/12000th dilution is done in cold PBS before each reading. The dosage of ATP is done on these samples: 50 μL of this dilution is placed in a luma basin and 50 μl of luminol are added. After 10 seconds, the luminescence read is triggered. The values are standardized with respect to the quantity of proteins for each sample. The measures are done using an apparatus: the Biocounter M2010A LUMAC®/3M.

[2] = system: dermal fibroblasts; assay: Protection against oxidative damage: carbonylation of proteins (EIA/ELISA with DNP); conditions: for decrease in carbonylation: peptide 1% solution at 50 ppm, 72 hours before, during, 24 hours after stress
Source text: The goal of this study is to determine the protector effect of the peptide SEQ ID no 1 with respect to dermal fibroblasts subjected to oxidative stress caused by UV rays or hydrogen peroxide (H2O2). To evaluate the oxidative damage suffered by the cells, measurements of the carbonylation of the proteins was done.
The carbonylation of proteins is the result of the oxidative splitting of proteins or oxidation of the arginine residues, lysine, proline or threonine. The dosage of the carbonylation of proteins is done using an EIA (Enzyme Immuno Assay) technique.
Fibroblasts in culture were placed in the presence of the peptide SEQ ID no 1 in a 1% solution, at 50 ppm, 72 hours before, during, and also 24 hours after the oxidative stress (UVB irradiation of 50 mJ/cm^2 or treatment par 2 mM of H2O2). untreated controls not subjected to oxidative stress are done.
The degree of carbonylation consists in the use of DNP (dinitrophenyl) which has the property to se fixer specifically on these carbonyl groups of the proteins. The fixed DNP is then assayed using an ELISA method, thanks to an anti-DNP antibody linked to peroxydase. A range of BSA (bovine albumin serum) oxidized (with a known concentration of carbonyl groups) is used for calibration.

[3] = system: Biopsies of human skin; assay: Protection against stress induced by glycation, ex vivo skin culture, H&E histology; conditions: methyl glyoxal at 5 or 10 mM; peptide 1% of a 50 ppm mother solution, 24 hours before and 24 hours after glycation agent
Protocol: The goal of this study is to determine the protective effective of the peptide SEQ ID no 1, with respect to ex vivo epidermal culture subjected to stress by a glycation agent.
Biopsies of human skin are maintained in ex vivo culture, treated with a 1% solution, a mother solution of 50 ppm of peptide SEQ ID no 1, 24 hours before, and also 24 hours after the introduction of a glycation agent (methyl glyoxal at 5 or 10 mM). Histology hematoxyline-eosine (H&E) staining makes it possible to evaluate the quality of skin structures.

| Substance | increase in the quantity of intracellular ATP ([1]; after 1 hour of culture) | increase in the quantity of intracellular ATP ([1]; after 3 hours of culture) | decrease in carbonylation ([2]; UVB irradiation of 50 mJ/cm^2, compared to irradiated cells not treated) | reduction in the carbonylation of proteins ([2]; cells treated with peptide (1% solution, at 50 ppm), compared to the untreated cells) | decrease in carbonylation ([2]; oxidative stress by 2 mM of H2O2, compared to stressed cells not treated) | evaluation of the skin structures (H&E staining) [3] |
| --- | --- | --- | --- | --- | --- | --- |
| AVLAGD [peptide SEQ ID No 2] | 17% | 67% |  |  |  |  |
| Ala-Val-Leu-Ala-Gly-Asp-NH2 (AVLAGD-NH2) [peptide SEQ ID no 1] |  |  | 20% | 30% | 20% | net resistance to cellular stress induced by glycation |
